Reference: ChEMBL document CHEMBL1141010, “Chroman-3-amides as potent Rho kinase inhibitors” (Bioorg Med Chem Lett, 2008)

Key:
Assay type in all cases: ADME, organism-based
[1] = Volume of distribution at steady state in rat at 1 mg/kg, iv and 2 mg/kg, po; conditions: in vivo, read-out: Vdss
[2] = Cmax in rat at 2 mg/kg, po; design: dose 2 mg/kg, route oral; conditions: in vivo
[3] = Oral bioavailability in rat at 2 mg/kg; conditions: in vivo

Row | Vd [1] | Cmax [2] | bioavailability [3] | SMILES
1 | 4.6 L/kg | 0.17 µM | 33% | CN(C)CCOc1cc(-c2cn[nH]c2)ccc1NC(=O)C1COc2ccccc2C1 (centres undefined)
2 | 1.7 L/kg | 0.32 µM | 35% | COc1ccc2c(c1)CC(C(=O)Nc1ccc(-c3cn[nH]c3)cc1OCCN(C)C)CO2 (centres undefined)
3 | 5.9 L/kg | 0.1 µM | 27% | CN(C)CCOc1cc(-c2cn[nH]c2)ccc1NC(=O)C1COc2ccc(F)cc2C1 (centres undefined)
